{"source": "paper PMC5378956", "about": "“Inhibition of delta-secretase improves cognitive functions in mouse models of Alzheimer's disease” (Nature Communications, 2017)", "key": {"δ-secretase": {"biological_target": "T1, δ-secretase (Homo sapiens, UniProt Q99538)", "T1 construct": "tested with purified active δ-secretase, IC50 values for the top 8 candidates were calculated; purchased Sino Biological (Beijing, China)", "T1 sequence (Q99538 18-323 limits assumed)": "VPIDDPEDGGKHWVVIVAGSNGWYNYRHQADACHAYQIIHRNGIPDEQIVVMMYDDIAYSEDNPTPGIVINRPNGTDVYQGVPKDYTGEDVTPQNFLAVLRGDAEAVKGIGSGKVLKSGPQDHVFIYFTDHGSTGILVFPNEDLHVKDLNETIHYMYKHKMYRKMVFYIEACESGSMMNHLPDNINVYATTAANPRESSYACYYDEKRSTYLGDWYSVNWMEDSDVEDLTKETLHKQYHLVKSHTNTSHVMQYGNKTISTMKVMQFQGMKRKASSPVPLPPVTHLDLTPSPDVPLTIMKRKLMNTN", "test": "IC50 assay with purified recombinant δ-secretase (AEP), substrate Cbz-Ala-Ala-Asn-AMC", "assay_type": "biochemical", "description": "δ-secretase – 50 nM enzyme was pre-incubated with inhibitor in assay buffer (50 mM Sodium Citrate pH 5.5, 0.1% CHAPS, 60 mM Na2HPO4, 1 mM EDTA) for 10 min at 37 °C. The reaction was initiated on addition of 10 μM Cbz-Ala-Ala-Asn-AMC (Bachem).\nTo determine the IC50 values of the compounds towards δ-secretase, cathepsin-S, cathepsin-L, caspase-3 and caspase-8, purified recombinant enzyme was incubated in appropriate assay buffers in the presence of increasing concentrations of inhibitors. The formation of fluorescent product was monitored in duplicate reactions and the data were fit to appropriate equations to calculate the IC50 values."}, "Caco-2 monolayer": {"tested_on": "Caco-2 monolayer", "test": "Caco-2 monolayer permeability screen", "description": "Supplementary Table 3: Caco-2 permeability and BBB-PAMPA permeability\nFor CaCo-2 permeability assay, cells were incubated with 10 µM of these reagents in\nbuffers for 2 h, and the receiver side buffer is removed for analysis by LC/MS/MS. Efflux […]\n(§1) LLOQ: Lower Limit of Quantification; Papp: apparent permeability."}, "[1]": {"test": "BBB-PAMPA permeability assay", "assay_type": "in vitro ADME", "details": "for effective permeability Pe / Papp at 18 h: porcine brain lipid, 18 h; for Papp at 18 h: PAMPA, read-out: effective permeability Pe", "description": "Supplementary Table 3: Caco-2 permeability and BBB-PAMPA permeability […]\nFor CaCo-2 permeability assay, cells were incubated with 10 µM of these reagents in buffers for 2 h, and the receiver side buffer is removed for analysis by LC/MS/MS. Efflux […]\nFor BBB-PAMPA permeability assay, the filter membrane was coated with 4 µl of a 20 mg ml-1 porcine brain lipid in dodecane. 200 µl of the compound solution was added to the donor well. The acceptor well was filled with 200 µl of transport buffer. The acceptor filter plate was carefully placed on to the donor plate to create […]\na sandwich. […] Samples of the donor and acceptor wells were analyzed by LC/MS/MS and the effective permeability (Pe) was calculated.\nas §1"}, "primary neurons": {"tested_on": "primary neurons", "test": "LDH release of primary neurons after OGD", "assay_type": "cell-based, mouse"}, "GAPDH": {"biological_target": "T2, GAPDH (Mus musculus, UniProt P16858)", "T2 construct": "GAPDH activity in primary neurons; endogenous in cells; host or cells: primary neurons (mouse cortical)", "test": "GAPDH activity assay in primary neurons", "assay_type": "cell-based", "description": "GAPDH activity was assessed using the GAPDH Activity Assay Kit (Biovision) according to the manufacture's instructions."}, "tau P301S mice": {"tested_on": "tau P301S mice", "test": "Chronic toxicity after 3 months oral gavage", "assay_type": "in vivo, mouse", "text": "[…]. […] […]."}, "[2]": {"test": "Serum and brain level after chronic oral dosing", "details": "tau P301S, mouse, in vivo, oral 10 mg kg-1d-1, 3 months, 1 hour after last dose"}, "[3]": {"tested_on": "δ-secretase-mediated truncation of tau", "procedure": "A half medium was changed to fresh Neurobasal/B27 every 4 days. The neurons were maintained for 13 days in vitro (DIV). Compounds were pre-incubated with primary culture neurons for 30 min. […] The neuronal lysates were prepared for δ-secretase assay."}, "[4]": {"test": "Redox potential, horseradish peroxidase-phenol red assay (H2O2 production)"}, "[5]": {"details": "purified recombinant enzyme, mean±s.d., read-out: IC50 AEP (δ-secretase)"}}, "note": "Where two headings read alike, the source gives them in different places."}
{"smiles": "COc1ccc(N2CCN(C(c3ccc(N(C)C)cc3)c3nnnn3C(C)(C)C)CC2)cc1", "note": "(stereo not shown) [compound 31]", "values": [{"measurement": "IC50", "setting": "δ-secretase; [5]", "value": "260 ± 30", "unit": "nM"}, {"measurement": "Caco-2 permeability in words", "setting": "Caco-2 monolayer", "value": "highly permeable"}, {"measurement": "BBB-PAMPA permeability / BBB penetration in words", "setting": "[1]", "value": "barely penetrate the BBB"}, {"measurement": "effective permeability Pe", "setting": "[1]", "value": "< LLOQ"}]}
{"smiles": "Nc1ccc(N2CCOCC2)c2nonc12", "note": "[compound 11, 7-(morpholin-4-yl)-2,1,3-benzoxadiazol-4-amine]", "values": [{"measurement": "Caco-2 permeability in words", "setting": "Caco-2 monolayer", "value": "highly permeable"}, {"measurement": "BBB-PAMPA permeability / BBB penetration in words", "setting": "[1]", "value": "detected at high-levels"}, {"measurement": "Papp at 18 h", "setting": "[1]", "value": "> 25", "unit": "×10⁻⁶ cm/s"}, {"measurement": "OGD-induced cell toxicity in neurons from 5XFAD or tau P301S mice", "setting": "primary neurons; cultured neurons from 5XFAD mice or tau P301S mice", "value": "attenuated OGD-induced cell toxicity"}, {"measurement": "neuronal injury induced by OGD in δ-secretase knockout neurons", "setting": "primary neurons; neurons from δ-secretase knockout mice", "value": "did not further protect"}, {"measurement": "neuronal injury (LDH in medium) induced by OGD", "setting": "primary neurons; wild-type neurons", "value": "attenuated neuronal injury"}, {"measurement": "GAPDH inhibition", "setting": "GAPDH; 2 μM", "value": "failed to inhibit GAPDH"}, {"measurement": "GAPDH inhibition", "setting": "GAPDH; 50 μM", "value": "some inhibitory effect"}, {"measurement": "complete blood count, renal and liver function tests overall", "setting": "tau P301S mice; 10 mg kg−1 d−1, 3 months", "value": "all parameters were comparable with the vehicle-treated mice"}, {"measurement": "hematoxylin and eosin staining of major organs", "setting": "tau P301S mice; 10 mg kg−1 d−1, 3 months", "value": "no major differences between vehicle-treated and drug-treated animals"}, {"measurement": "systemic toxicity", "setting": "tau P301S mice; 10 mg kg−1 d−1, 3 months", "value": "does not exhibit systemic toxicity"}, {"measurement": "weight of major organs (heart, liver, spleen, brain, kidney)", "setting": "tau P301S mice; 10 mg kg−1 d−1, 3 months", "value": "not changed"}, {"measurement": "body weight", "setting": "tau P301S mice; 10 mg kg−1 d−1 oral gavage, 3 months", "value": "no significant change in body weight"}, {"measurement": "ALB", "setting": "tau P301S mice; 10 mg kg−1 d−1 oral, 3 months", "value": "3.57 ± 0.06", "unit": "g/dL"}, {"measurement": "ALP", "setting": "tau P301S mice; 10 mg kg−1 d−1 oral, 3 months", "value": "35.25 ± 28.48", "unit": "U L-1"}, {"measurement": "ALT", "setting": "tau P301S mice; 10 mg kg−1 d−1 oral, 3 months", "value": "64.25 ± 34.60", "unit": "U L-1"}, {"measurement": "BUN", "setting": "tau P301S mice; 10 mg kg−1 d−1 oral, 3 months", "value": "26.75 ± 3.30", "unit": "mg/dL"}, {"measurement": "Hemoglobin", "setting": "tau P301S mice; 10 mg kg−1 d−1 oral, 3 months", "value": "12.7 ± 0.94", "unit": "g/dL"}, {"measurement": "MCH", "setting": "tau P301S mice; 10 mg kg−1 d−1 oral, 3 months", "value": "17.53 ± 3.42", "unit": "pg"}, {"measurement": "MCHC", "setting": "tau P301S mice; 10 mg kg−1 d−1 oral, 3 months", "value": "40.8 ± 5.07", "unit": "%"}, {"measurement": "Red blood cell", "setting": "tau P301S mice; 10 mg kg−1 d−1 oral, 3 months", "value": "7.38 ± 1.15 X1012 l-1"}, {"measurement": "TBIL", "setting": "tau P301S mice; 10 mg kg−1 d−1 oral, 3 months", "value": "0.15 ± 0.17", "unit": "mg/dL"}, {"measurement": "White blood cell", "setting": "tau P301S mice; 10 mg kg−1 d−1 oral, 3 months", "value": "1.37 ± 0.08 X109 l-1"}, {"measurement": "platelet", "setting": "tau P301S mice; 10 mg kg−1 d−1 oral, 3 months", "value": "491.26 ± 69.8 X109 l-1"}, {"measurement": "concentration at 1 h", "setting": "[2]; 10 mg kg-1d-1, Compound #11 in the serum, Sample #1", "value": 184, "unit": "ng/mL"}, {"measurement": "concentration at 1 h", "setting": "[2]; 10 mg kg-1d-1, Compound #11 in the serum, Sample #2", "value": 59, "unit": "ng/mL"}, {"measurement": "concentration at 1 h", "setting": "[2]; 10 mg kg-1d-1, Concentration in the brain, Sample #1", "value": 206, "unit": "ng/g"}, {"measurement": "concentration at 1 h", "setting": "[2]; 10 mg kg-1d-1, Concentration in the brain, Sample #2", "value": 87, "unit": "ng/g"}, {"measurement": "OGD-induced cleavage of human tau (tau N368)", "setting": "[3]", "value": "inhibited by compound 11 in a dose-dependent manner"}, {"measurement": "production of H2O2 (redox potential)", "setting": "[4]", "value": "none of them produced H2O2"}]}
{"smiles": "Cc1cccc(NCc2ccc(O)c3ncccc23)c1C", "note": "[compound 12]", "values": [{"measurement": "IC50", "setting": "δ-secretase; [5]", "value": "280 ± 20", "unit": "nM"}, {"measurement": "effective permeability Pe", "setting": "[1]", "value": "< LLOQ"}]}
{"smiles": "Cn1c(=O)[nH]c(=O)c2c1nc(S)n2CC(O)COc1ccc(Cl)cc1", "note": "(stereo not shown) [compound 38]", "values": [{"measurement": "IC50", "setting": "δ-secretase; purified active δ-secretase, read-out: IC50 / potency toward δ-secretase", "value": "~370", "unit": "nM"}, {"measurement": "IC50", "setting": "δ-secretase; [5]", "value": "370 ± 60", "unit": "nM"}, {"measurement": "BBB-PAMPA permeability / BBB penetration in words", "setting": "[1]", "value": "barely penetrate the BBB"}, {"measurement": "Papp at 18 h", "setting": "[1]", "value": 0.007, "unit": "×10⁻⁶ cm/s"}]}
